Data on 26 molecules can be found in patent US4281136A, “2-Alkyl-3-haloisothiazolium salts and their derivatives” (Givaudan Corporation, priority 1978, dated 1981).

This assay concerns Ps. aeruginosa. Nature of the assay: preservative for cutting oil emulsions. It is filed as cell-based. Particulars: for MIC: Pseudomonas aeruginosa; for Minimum Inhibitory Concentration: listed as CH3, Cl, H. The protocol: Various aliquots of a 6% solution of the chemical in ethanol were added to cutting oil emulsions prepared by diluting Kutwell 30 cutting oil concentrate 1 to 30 with water. These samples were inoculated with a culture of Ps. aeruginosa and incubated at 28° on a rotary shaker. At weekly intervals the samples were examined for microorganisms and then reinoculated and incubated.

[1] abbreviates: 168 h, cutting oil emulsion, incubation 1 week, 28°, read-out: Minimum Inhibitory Concentration.
Where [2] appears, read: 336 h, cutting oil emulsion, incubation 2 weeks, 28°, read-out: Minimum Inhibitory Concentration.
[3] abbreviates: 504 h, cutting oil emulsion, incubation 3 weeks, 28°, read-out: Minimum Inhibitory Concentration.
Where [4] appears, read: 672 h, cutting oil emulsion, incubation 4 weeks, 28°, read-out: Minimum Inhibitory Concentration.
Setting [5] is: 168 h, read-out: Minimum Inhibitory Concentration, cutting oil emulsion, incubation 1 week, 28°.
Where [6] appears, read: 336 h, read-out: Minimum Inhibitory Concentration, cutting oil emulsion, incubation 2 weeks, 28°.
[7] abbreviates: 504 h, read-out: Minimum Inhibitory Concentration, cutting oil emulsion, incubation 3 weeks, 28°.
The mark [8] stands for this setting: 672 h, read-out: Minimum Inhibitory Concentration, cutting oil emulsion, incubation 4 weeks, 28°.

Values after ≈ are worked out from the molar mass of the structure shown. Where two headings read alike, the source gives them in different places.

On to `CCn1sc(Cl)c(Cl)c1=S` [No. 2 (Table VIII)], for which the MIC runs as follows: under setting [1], 16 µg/mL (≈ 74.7 µM); under setting [2], 32 µg/mL (≈ 149 µM); under setting [3], 62 µg/mL (≈ 290 µM); under setting [4], 62 µg/mL (≈ 290 µM).
Turning to `Cn1sccc1=S` [No. 3 (Table VIII)], the MIC under setting [5] worked out at 125 µg/mL (≈ 953 µM), the MIC under setting [6] came out at 250 µg/mL (≈ 1910 µM), the MIC under setting [7] stood at 250 µg/mL (≈ 1910 µM) and the MIC under setting [8] turned out to be 250 µg/mL (≈ 1910 µM).
For `C[n+]1sc(Cl)c(Cl)c1Cl.O=S(=O)([O-])C(F)(F)F` [No. 4 (Table I), 2-Methyl-3,4,5-trichloroisothiazolium trifluoromethane sulfonate], the MIC reads like this: under setting [5], 2 µg/mL; under setting [6], 2 µg/mL; under setting [7], 16 µg/mL; under setting [8], 64 µg/mL.
Regarding `Cn1scc(Cl)c1=S` [No. 4 (Table VIII)], the MIC under setting [5] is under 32 µg/mL, the MIC under setting [6] stood at 62 µg/mL (≈ 374 µM), the MIC under setting [7] worked out at 62 µg/mL (≈ 374 µM) and the MIC under setting [8] amounted to 62 µg/mL (≈ 374 µM).
Regarding `CCOC(=O)c1sn(C)c(=S)c1Cl` [No. 5 (Table VIII)], the MIC runs as follows: under setting [1], 250 µg/mL (≈ 1050 µM); under setting [2], 125 µg/mL (≈ 526 µM); under setting [3], 125 µg/mL (≈ 526 µM); under setting [4], 62 µg/mL (≈ 261 µM).
On to `Cn1sc(C#N)c(Cl)c1=S` [No. 6 (Table VIII)], for which the MIC amounted to 16 µg/mL (≈ 83.9 µM) under setting [1], 125 µg/mL (≈ 656 µM) under setting [2], 250 µg/mL (≈ 1310 µM) under setting [3] and 250 µg/mL (≈ 1310 µM) under setting [4].
Consider `CC[n+]1sc(Cl)c(Cl)c1Cl.F[B-](F)(F)F` [No. 7 (Table I), 2-Ethyl-3,4,5-trichloroisothiazolium tetrafluoroborate], for which the MIC under setting [1] was 4 µg/mL, the MIC under setting [2] was found to be 8 µg/mL, the MIC under setting [3] came out at 8 µg/mL and the MIC under setting [4] amounted to 32 µg/mL.
`CCC[n+]1sc(Cl)c(Cl)c1Cl.O=S(=O)([O-])C(F)(F)F` [No. 10 (Table I), 2-Propyl-3,4,5-trichloroisothiazolium trifluoromethane sulfonate]: the MIC under setting [1] was under 32 µg/mL, the MIC under setting [2] is under 32 µg/mL, the MIC under setting [3] is under 32 µg/mL and the MIC under setting [4] is under 32 µg/mL.
Take `C[n+]1sccc1Cl` [No. 13 (Table I), 3-Chloro-2-methylisothiazolium fluorosulfonate]: the “Minimum Inhibitory Concentration” value by setting is: (cutting oil emulsion, incubation 1 week, 28°, O3SF) 32 µg/mL; (cutting oil emulsion, incubation 2 weeks, 28°, O3SF) 32 µg/mL; (cutting oil emulsion, incubation 3 weeks, 28°, O3SF) 32 µg/mL; (cutting oil emulsion, incubation 4 weeks, 28°, O3SF) 32 µg/mL.
Take `C[n+]1sccc1Cl` [No. 14 (Table I)]: the “Minimum Inhibitory Concentration” value reads like this: (cutting oil emulsion, incubation 1 week, 28°, O3SOMe) 64 µg/mL; (cutting oil emulsion, incubation 2 weeks, 28°, O3SOMe) 64 µg/mL; (cutting oil emulsion, incubation 3 weeks, 28°, O3SOMe) 64 µg/mL; (cutting oil emulsion, incubation 4 weeks, 28°, O3SOMe) 64 µg/mL.
Consider `C[n+]1sccc1Cl.O=[N+]([O-])[O-]` [No. 15 (Table I), 2-Methyl-3-chloroisothiazolium nitrate], for which the MIC under setting [5] worked out at 8 µg/mL, the MIC under setting [6] came out at 8 µg/mL, the MIC under setting [7] was found to be 8 µg/mL and the MIC under setting [8] amounted to 8 µg/mL.
In the case of `C[n+]1sccc1Cl` [No. 16 (Table I)], the “Minimum Inhibitory Concentration” value stood at 8 µg/mL (cutting oil emulsion, incubation 1 week, 28°, SbCl6); 16 µg/mL (cutting oil emulsion, incubation 2 weeks, 28°, SbCl6); 16 µg/mL (cutting oil emulsion, incubation 3 weeks, 28°, SbCl6); 16 µg/mL (cutting oil emulsion, incubation 4 weeks, 28°, SbCl6).
For `C[n+]1sccc1Cl` [No. 17 (Table I)], the “Minimum Inhibitory Concentration” value was found to be 32 µg/mL (cutting oil emulsion, incubation 1 week, 28°, PF6); 32 µg/mL (cutting oil emulsion, incubation 2 weeks, 28°, PF6); 32 µg/mL (cutting oil emulsion, incubation 3 weeks, 28°, PF6); 32 µg/mL (cutting oil emulsion, incubation 4 weeks, 28°, PF6).
In the case of `CC[n+]1sccc1Cl` [No. 18 (Table I), 3-Chloro-2-ethylisothiazolium ethylsulfate], the MIC runs as follows: under setting [5], 125 µg/mL; under setting [6], 125 µg/mL; under setting [7], 125 µg/mL; under setting [8], 500 µg/mL.
With `CCC[n+]1sccc1Cl` [No. 20 (Table I)], the MIC came to 125 µg/mL under setting [5], 250 µg/mL under setting [6], 250 µg/mL under setting [7] and 500 µg/mL under setting [8].
Regarding `C[n+]1scc(Cl)c1Cl` [No. 23 (Table I)], the “Minimum Inhibitory Concentration” value is 32 µg/mL (cutting oil emulsion, incubation 3 weeks, 28°, Cl, O3SOMe) and 32 µg/mL (cutting oil emulsion, incubation 4 weeks, 28°, Cl, O3SOMe).
For the molecule `CCOC(=O)c1s[n+](C)c(Cl)c1Cl` [No. 24 (Table I), 3,4-Dichloro-2-methyl-5-ethoxycarbonylisothiazolium fluorosulfonate], the MIC under setting [1] is 125 µg/mL, the MIC under setting [2] turned out to be 250 µg/mL, the MIC under setting [3] is 250 µg/mL and the MIC under setting [4] worked out at 250 µg/mL.
As for `C[n+]1sc(C#N)c(Cl)c1Cl` [No. 25 (Table I), 5-Cyano-3,4-dichloro-2-methylisothiazolium fluorosulfonate], the MIC under setting [1] was under 16 µg/mL, the MIC under setting [2] amounted to 125 µg/mL, the MIC under setting [3] was found to be 250 µg/mL and the MIC under setting [4] amounted to 250 µg/mL.
As to `Cc1s[n+](C)c(Cl)c1Cl` [No. 27 (Table I), 3,4-Dichloro-2,5-dimethylisothiazolium fluorosulfonate], the MIC by setting is: under setting [5], 125 µg/mL; under setting [6], 250 µg/mL; under setting [7], 500 µg/mL; under setting [8], 500 µg/mL.
Consider `C[n+]1scc([N+](=O)[O-])c1Cl` [No. 28 (Table I)], for which the MIC amounted to 125 µg/mL under setting [1], 500 µg/mL under setting [2], 500 µg/mL under setting [3] and 500 µg/mL under setting [4].
As for `CCN1SC=CC1=C(C#N)C#N` [drawing 12 CH2CH3, H, H], the MIC by setting is: under setting [1], 125 µg/mL (≈ 705 µM); under setting [2], 250 µg/mL (≈ 1410 µM); under setting [3], 250 µg/mL (≈ 1410 µM); under setting [4], 500 µg/mL (≈ 2820 µM).
In the case of `CC1=C(Cl)C(=C(C#N)C#N)N(C)S1` [drawing 12 CH3, Cl, CH3], the MIC reads like this: under setting [1], 250 µg/mL (≈ 1180 µM); under setting [2], 500 µg/mL (≈ 2360 µM); under setting [3], 500 µg/mL (≈ 2360 µM); under setting [4], 1000 µg/mL (≈ 4720 µM).
Turning to `CN1SC(C#N)=C(Cl)C1=C(C#N)C#N` [drawing 12 CH3, Cl, CN], the MIC is, setting by setting: under setting [1], 62 µg/mL (≈ 278 µM); under setting [2], 250 µg/mL (≈ 1120 µM); under setting [3], 250 µg/mL (≈ 1120 µM); under setting [4], 250 µg/mL (≈ 1120 µM).
Consider `CCOC(=O)C1=C(Cl)C(=C(C#N)C#N)N(C)S1` [drawing 12 CH3, Cl, COOEt, 4-Chloro-3-dicyanomethylene-5-ethoxycarbonyl-2-methyl-4-isothiazoline], for which the MIC under setting [1] stood at 125 µg/mL (≈ 463 µM), the MIC under setting [2] was 125 µg/mL (≈ 463 µM), the MIC under setting [3] is 125 µg/mL (≈ 463 µM) and the MIC under setting [4] was determined as 125 µg/mL (≈ 463 µM).
As to `CN1SC=C(Cl)C1=C(C#N)C#N` [drawing 12 CH3, Cl, H], the MIC is under 32 µg/mL under setting [1], under 32 µg/mL under setting [2], under 32 µg/mL under setting [3] and under 32 µg/mL under setting [4].
Take `CN1SC=CC1=C(C#N)C#N` [drawing 12 CH3, H, H]: the MIC is, setting by setting: under setting [1], 250 µg/mL (≈ 1530 µM); under setting [2], 500 µg/mL (≈ 3060 µM); under setting [3], 500 µg/mL (≈ 3060 µM); under setting [4], 500 µg/mL (≈ 3060 µM).
